Results as given in patent publication US5532218A, “3'-aziridino-anthracycline derivatives” (Farmitalia Carlo Erba S.R.L., priority 1993, dated 1996).
Converted amounts (≈) assume the structure as drawn.

Tests used:
[1] = system: LoVo (colon adenocarcinoma); experiment: cells; conditions: for IC50 (concentration inhibiting 50% colony formation), LoVo: colony assay, 4 h treatment; for cytotoxic activity against LoVo, in words: both cell lines
From the text: (§1) The citotoxic activity is reported as IC50, the concentration inhibiting 50% of colony formation, calculated on concentration response curves. Resistance index R.I. is the ratio between the IC50 on resistant cells and the IC50 on sensitive cells.

[2] = system: LoVo/DX (colon adenocarcinoma resistant to doxorubicin); experiment: cells; conditions: for resistance index, in words: LoVo/DX vs LoVo; for IC50 (concentration inhibiting 50% colony formation), LoVo/DX / R.I. = Resistance Index = (IC50 LoVo/DX)/(IC50 LoVo): colony assay, 4 h treatment; for cytotoxic activity against LoVo/DX, in words: both cell lines; for R.I. = Resistance Index = (IC50 LoVo/DX)/(IC50 LoVo): ratio LoVo/DX to LoVo
From the text: as §1

[3] = system: P388 murine leukaemia resistant to doxorubicin (P388/DX); experiment: antitumor activity on P388/DX leukaemia in vivo; set-up: species or system murine (BD2F1 mice); conditions: for T/C (median survival time of treated mice/median survival time of controls × 100): P388/DX 10^5 cell/mouse i.v. in BD2F1 mice, compound i.v. one day after tumor transplantation, at optimal dose; for T/C (median survival time of treated mice/median survival time of controls × 100) / O.D. (Optimal Dose): in Tween 80 (10%); for O.D. (Optimal Dose): P388/DX in BD2F1 mice, i.v. one day after tumor transplantation; for in vivo activity compared with doxorubicin, in words: P388 murine leukaemia resistant to doxorubicin, BD2F1 mice
From the text: The compounds were suspended in Tween 80 (10%) and injected i.v. one day
after tumor transplantation.
^(2) Median survival time of treated mice/Median survival time of

“3'-deamino-3'-[1-aziridinyl]-4'-O-methansulfonyl daunorubicin [Compound 1a]” was tested, and the “IC50 (concentration inhibiting 50% colony formation), LoVo” value ([1]; LoVo) was 13 ng/mL, the “cytotoxic activity against LoVo, in words” value [1] was “high activity” and the “resistance index, in words” value [2] was “low resistance index”. For the same compound, the “IC50 (concentration inhibiting 50% colony formation), LoVo/DX” value ([2]; LoVo/DX) was 22 ng/mL, the “cytotoxic activity against LoVo/DX, in words” value [2] was “high activity” and the “R.I. = Resistance Index = (IC50 LoVo/DX)/(IC50 LoVo)” value (shortened to “R.I. = Resistance Index =”) [2] was 1.7. The “T/C (median survival time of treated mice/median survival time of controls × 100)” value [3] was 190%, the “O.D. (Optimal Dose)” value [3] was 2.2 mg/kg and the “in vivo activity compared with doxorubicin, in words” value [3] was “strikingly higher activity than doxorubicin”.
With “3'-deamino-3'-[1-aziridinyl]-4'-O-methansulfonyl doxorubicin [Compound 2c]” the “IC50 (concentration inhibiting 50% colony formation), LoVo” value ([1]; LoVo) was 2.7 ng/mL, the “cytotoxic activity against LoVo, in words” value [1] was “high activity” and the “resistance index, in words” value [2] was “low resistance index”. The “IC50 (concentration inhibiting 50% colony formation), LoVo/DX” value ([2]; LoVo/DX) was 24 ng/mL, the “cytotoxic activity against LoVo/DX, in words” value [2] was “high activity” and the “R.I. = Resistance Index =” value [2] was 9.2. The “T/C (median survival time of treated mice/median survival time of controls × 100)” value [3] was 195%, the “O.D. (Optimal Dose)” value [3] was 1.8 mg/kg and the “in vivo activity compared with doxorubicin, in words” value [3] was “strikingly higher activity than doxorubicin”.
With “3'-deamino-3'-[1-aziridinyl]-4'-O-methansulfonyl-14-nicotinate-doxorubicin [Compound 2a]” the “IC50 (concentration inhibiting 50% colony formation), LoVo” value ([1]; LoVo) was 14 ng/mL, the “resistance index, in words” value [2] was “low resistance index” and the “IC50 (concentration inhibiting 50% colony formation), LoVo/DX” value ([2]; LoVo/DX) was 40 ng/mL. The “R.I. = Resistance Index =” value [2] was 2.9, the “T/C (median survival time of treated mice/median survival time of controls × 100)” value [3] was 200% and the “O.D. (Optimal Dose)” value [3] was 2.5 mg/kg. For the same compound, the “in vivo activity compared with doxorubicin, in words” value [3] was “strikingly higher activity than doxorubicin”.
`CC(=O)[C@]1(O)Cc2c(O)c3c(c(O)c2[C@@H](O[C@H]2C[C@H](N4CC4)[C@H](OS(C)(=O)=O)[C@H](C)O2)C1)C(=O)c1ccccc1C3=O` [Compound 1b, 4-demethoxy-3'-deamino-3'-[1-aziridinyl]-4'-O-methansulfonyl daunorubicin] was tested, and the IC50 ([1]; Homo sapiens, LoVo, 4 h, read-out: IC50 (concentration inhibiting 50% colony formation), LoVo) was 0.027 µg/mL (≈ 0.0449 µM), the “cytotoxic activity against LoVo, in words” value [1] was “high activity” and the IC50 ([2]; Homo sapiens, LoVo/DX, 4 h, read-out: IC50 (concentration inhibiting 50% colony formation), LoVo/DX) was 0.026 µg/mL (≈ 0.0432 µM). For the same compound, the “resistance index, in words” value [2] was “low resistance index”, the “cytotoxic activity against LoVo/DX, in words” value [2] was “high activity” and the “R.I. = Resistance Index =” value [2] was 0.9. For the same compound, the “T/C (median survival time of treated mice/median survival time of controls × 100)” value [3] was 240%, the “O.D. (Optimal Dose)” value [3] was 3.8 mg/kg and the “in vivo activity compared with doxorubicin, in words” value [3] was “strikingly higher activity than doxorubicin”.
With `COc1cccc2c1C(=O)c1c(O)c3c(c(O)c1C2=O)C[C@@](O)(C(=O)CO)C[C@@H]3O[C@H]1C[C@H](N)[C@H](O)[C@H](C)O1` [doxorubicin, reference compound] the “O.D. (Optimal Dose)” value [3] was 16.9 mg/kg.
